Tests used:
[1] = log D (shake flask, octanol/aqueous buffer); assay type: physicochemical; settings: 1-octanol/aqueous buffer
From the text: Physical Properties log D
The lipophilicity of a drug is an important physical property which may influence many biological and metabolic properties of a compound, for example the absorption, distribution, metabolism, excretion and toxicity profiles of a compound. The distribution coefficient between 1-octanol and aqueous buffer, Log DO/W, at pH 7.4, is the most commonly used measurement of the lipophilicity of a compound. The current method for measurement of Log DO/W is based on the traditional shake flask technique, but with the modification of measuring compounds in mixtures of ten at a time using UPLC with quantitative mass spectrometry (MS) as a method to measure the relative octanol and aqueous concentrations. […] An additional QC sample Caffeine, with low Log D, are used and randomly placed in all runs. The method has been thoroughly validated against the previous shake flask methodologies.

[2] = Human hepatocyte assay (metabolic stability); assay type: in vitro ADME; settings: human hepatocytes, in vitro intrinsic clearance
Description: The metabolic stability of compounds in human hepatocytes was assessed using the following protocol: • 1. Prepare 10 mM stock solutions of compound and control compounds in appropriate solvent (DMSO). Place incubation medium (L-15 Medium) in a 37° C. water bath, and allow warming for at least 15 minutes prior to use. • 2. Add 80 μL of acetonitrile to each well of the 96-well deep well plate (quenching plate). • 3. In a new 96-well plate, dilute the 10 mM test compounds and the control compounds to 100 μM by combining 198 μL of acetonitrile and 2 μL of 10 mM stock. • 4. Remove a vial of cryopreserved (less than −150° C.) human hepatocytes (LiverPool™ 10 Donor Human hepatocytes obtained from Celsis IVT. Chicago, Ill. (Product No. S01205)) from storage, ensuring that vials remain at cryogenic temperatures until thawing process ensues. As quickly as possible, thaw the cells by placing the vial in a 37° C. water bath and gently shaking the vials. Vials should remain in water bath until all ice crystals have dissolved and are no longer visible. After thawing is complete, spray vial with 70% ethanol, transfer the vial to a bio-safety cabinet. • 5. Open the vial and pour the contents into the 50 mL conical tube containing thawing medium. Place the 50 mL conical tube into a centrifuge and spin at 100 g for 10 minutes. […] Using Cellometer® Vision, count cells and determine the viable cell density. Cells with poor viability (<80% viability) are not acceptable for use. […] Transfer 247.5 μL of hepatocytes into each well of a 96-well cell culture plate. Place the plate on Eppendorf Thermomixer Comfort plate shaker to allow the hepatocytes to warm for 10 minutes. • 8. Add 2.5 μL of 100 μM test compound or control compounds into an incubation well containing cells, mix to achieve a homogenous suspension at 0.5 min, which when achieved, will define the 0.5 min time point. At the 0.5 min time, transfer 20 μL of incubated mixture to wells in a “Quenching plate” followed by vortexing. • 9. Incubate the plate at 37° C. at 900 rpm on an Eppendorf Thermomixer Comfort plate shaker. […] Centrifuge the quenching plates for 20 minutes at 4,000 rpm. 4 different compounds are pooled into one cassette and used for LC/MS/MS analysis.
All calculations were carried out using Microsoft Excel. Peak areas were determined from extracted ion chromatograms. In vitro intrinsic clearance (in vitro Clint, in […]) of parent compound was determined by regression analysis of the Ln percent parent disappearance vs. time curve.
V=incubation volume (0.25 mL);
N=number of hepatocytes per well (0.25×10^6 cells).

Structure (SMILES)	LogD pH 7.4 [1]	Clint [2] [μL/min/10^6 cells]
COC[C@](C)(F)CN1[C@H](c2ccc(OC3CN(CCCF)C3)cc2OC)c2ccc3[nH]ncc3c2C[C@H]1C (single isomer, unassigned) [Example 13]	4	–
COCC(F)(F)CN1[C@H](c2ccc(NC3CN(CCCF)C3)cn2)c2ccc3[nH]ncc3c2C[C@H]1C [Example 2, 6-((6S,8R)-7-(2,2-difluoro-3-methoxypropyl)-8-methyl-6,7,8,9-tetrahydro-3H-pyrazolo[4,3-f]isoquinolin-6-yl)-N-(1-(3-fluoropropyl)azetidin-3-yl)pyridin-3-amine]	–	6
C[C@@H]1Cc2c(ccc3[nH]ncc23)[C@@H](c2ccc(NC3CN(CCCF)C3)cn2)N1CC1(F)CC1 [Example 3, 6-((6S,8R)-7-((l-fluorocyclopropyl)methyl)-8-methyl-6,7,8,9-tetrahydro-3H-pyrazolo[4,3-f]isoquinolin-6-yl)-N-(1-(3-fluoropropyl)azetidin-3-yl)pyridin-3-amine]	–	5
C[C@@H]1Cc2c(ccc3[nH]ncc23)[C@@H](c2ncc(NC3CN(CCCF)C3)cc2F)N1CC1(F)CC1 [Example 18, 5-fluoro-6-((6S,8R)-7-((1-fluorocyclopropyl)methyl)-8-methyl-6,7,8,9-tetrahydro-3H-pyrazolo[4,3-f]isoquinolin-6-yl)-N-(1-(3-fluoropropyl)azetidin-3-yl)pyridin-3-amine]	–	3
COc1cc(NC2CN(CCCF)C2)ccc1[C@@H]1c2ccc3[nH]ncc3c2C[C@@H](C)N1CC(C)(F)F [Example 19, N-(4-((6S,8R)-7-(2,2-difluoropropyl)-8-methyl-6,7,8,9-tetrahydro-3H-pyrazolo[4,3-f]isoquinolin-6-yl)-3-methoxyphenyl)-1-(3-fluoropropyl)azetidin-3-amine]	–	5
COc1cc(NC2CN(CCCF)C2)ccc1[C@@H]1c2ccc3[nH]ncc3c2C[C@@H](C)N1CC(F)F [Example 21, N-(4-((6S,8R)-7-(2,2-difluoroethyl)-8-methyl-6,7,8,9-tetrahydro-3H-pyrazolo[4,3-f]isoquinolin-6-yl)-3-methoxyphenyl)-1-(3-fluoropropyl)azetidin-3-amine]	–	6
C[C@@H]1Cc2c(ccc3[nH]ncc23)[C@@H](c2ccc(NC3CN(CCCF)C3)cn2)N1CC(F)F [Example 25, 6-((6S,8R)-7-(2,2-difluoroethyl)-8-methyl-6,7,8,9-tetrahydro-3H-pyrazolo[4,3-f]isoquinolin-6-yl)-N-(1-(3-fluoropropyl)azetidin-3-yl)pyridin-3-amine]	–	5
COc1cc(NC2CN(CCCF)C2)ccc1[C@@H]1c2ccc3[nH]ncc3c2C[C@@H](C)N1CC(F)(F)F [Example 28, 1-(3-fluoropropyl)-N-(3-methoxy-4-((6S,8R)-8-methyl-7-(2,2,2-trifluoroethyl)-6,7,8,9-tetrahydro-3H-pyrazolo[4,3-f]isoquinolin-6-yl)phenyl)azetidin-3-amine]	–	5

Results, then the compound that gave them:

LogD pH 7.4 [1]	Clint [2] [μL/min/10^6 cells]	Structure (SMILES)
–	11	COCC(F)(F)CN1[C@H](c2ccc(NC3CN(CCCF)C3)cc2OC)c2ccc3[nH]ncc3c2C[C@H]1C [Example 1, N-(4-((6S,8R)-7-(2,2-difluoro-3-methoxypropyl)-8-methyl-6,7,8,9-tetrahydro-3H-pyrazolo[4,3-f]isoquinolin-6-yl)-3-methoxyphenyl)-1-(3-fluoropropyl)azetidin-3-amine]
–	2	COc1cc(NC2CN(CCCF)C2)ccc1[C@@H]1c2ccc3[nH]ncc3c2C[C@@H](C)N1CC1(F)CC1 [Example 6, N-(4-((6S,8R)-7-((l-fluorocyclopropyl)methyl)-8-methyl-6,7,8,9-tetrahydro-3H-pyrazolo[4,3-f]isoquinolin-6-yl)-3-methoxyphenyl)-1-(3-fluoropropyl)azetidin-3-amine]
–	7	C[C@@H]1Cc2c(ccc3[nH]ncc23)[C@@H](c2c(F)cc(NC3CN(CCCF)C3)cc2F)N1CC1(F)CC1 [Example 11, N-(3,5-difluoro-4-((6S,8R)-7-((1-fluorocyclopropyl)methyl)-8-methyl-6,7,8,9-tetrahydro-3H-pyrazolo[4,3-f]isoquinolin-6-yl)phenyl)-1-(3-fluoropropyl)azetidin-3-amine]
–	4	C[C@@H]1Cc2c(ccc3[nH]ncc23)[C@@H](c2ccc(NC3CN(CCCF)C3)cc2)N1CC(F)F [Example 48, N-(4-((6R,8R)-7-(2,2-difluoroethyl)-8-methyl-6,7,8,9-tetrahydro-3H-pyrazolo[4,3-f]isoquinolin-6-yl)phenyl)-1-(3-fluoropropyl)azetidin-3-amine]

— US10590130B2, “Chemical compounds” (AstraZeneca AB, priority 2016, dated 2020)
